Reference: US20100234390A1, “NOVEL COMPOUND AND THEIR USE” (priority 2007, published 2010)
Values after ≈ are worked out from the molar mass of the structure shown.

How the values were obtained:
Assay in all cases: Agar dilution MIC
[1] = tested on: S. aureus ATCC 29213; type: cell-based, Staphylococcus aureus; conditions: Staphylococcus aureus, ATCC29213, 35° C., 16-20 hours, read-out: Antimicrobial Screening (MIC)
Method: (§1) Briefly, the compounds of invention were weighed, dissolved in dimethyl sulfoxide, serially two fold diluted in the same solvent and then incorporated into molten Mueller Hinton Agar (MHA) in a petridish just before solidification, with each petridish containing a different concentration of a compound.
(§2) The bacterial inoculum was prepared by picking 3 to 5 well isolated bacterial colonies with the same morphological appearance from an 18-24 hours old culture with an inoculating loop, transferring the growth to a tube containing 3 mL of normal saline and adjusting the turbidity of the saline suspension to 0.5 Mc Farland Turbidity Standard equivalent to a bacterial population of 1.5×10^8 colony forming units (CFU) per mL of suspension. The suspension was diluted 1:10 in saline (i.e. 0.5 mL suspension 4.5 mL saline) to get a bacterial population of 1.5×10^7 CFU/mL as inoculum.
(§3) The inoculated petridishes were incubated at 35° C. in an ambient atmosphere for 16-20 hours.

[2] = tested on: S. aureus ATCC 43300; type: cell-based, Staphylococcus aureus; conditions: Staphylococcus aureus, ATCC43300, 35° C., 16-20 hours, read-out: Antimicrobial Screening (MIC)
Method: as §1, §2, §3

[3] = tested on: S. aureus MRO 00013; type: cell-based, Staphylococcus aureus; conditions: Staphylococcus aureus, MRO00013, 35° C., 16-20 hours, read-out: Antimicrobial Screening (MIC)
Method: as §1, §2, §3

[4] = tested on: S. aureus MRO 0001; type: cell-based, Staphylococcus aureus; conditions: Staphylococcus aureus, MRO0001, 35° C., 16-20 hours, read-out: Antimicrobial Screening (MIC)
Method: as §1, §2, §3

[5] = tested on: S. aureus MRO 00030; type: cell-based, Staphylococcus aureus; conditions: Staphylococcus aureus, MRO00030, 35° C., 16-20 hours, read-out: Antimicrobial Screening (MIC)
Method: as §1, §2, §3

[6] = tested on: S. aureus MRO 0003; type: cell-based, Staphylococcus aureus; conditions: Staphylococcus aureus, MRO0003, 35° C., 16-20 hours, read-out: Antimicrobial Screening (MIC)
Method: as §1, §2, §3

[7] = tested on: S. aureus MRO 00048; type: cell-based, Staphylococcus aureus; conditions: Staphylococcus aureus, MRO00048, 35° C., 16-20 hours, read-out: Antimicrobial Screening (MIC)
Method: as §1, §2, §3

[8] = tested on: S. aureus MRO 00055; type: cell-based, Staphylococcus aureus; conditions: Staphylococcus aureus, MRO00055, 35° C., 16-20 hours, read-out: Antimicrobial Screening (MIC)
Method: as §1, §2, §3

[9] = tested on: S. aureus MRO 00059; type: cell-based, Staphylococcus aureus; conditions: Staphylococcus aureus, MRO00059, 35° C., 16-20 hours, read-out: Antimicrobial Screening (MIC)
Method: as §1, §2, §3

[10] = tested on: S. aureus MRO 002053; type: cell-based, Staphylococcus aureus; conditions: Staphylococcus aureus, MRO002053, 35° C., 16-20 hours, read-out: Antimicrobial Screening (MIC)
Method: as §1, §2, §3

[11] = tested on: S. epidermidis MRO 002046; type: cell-based; conditions: Staphylococcus epidermidis, MRO002046, 35° C., 16-20 hours, read-out: Antimicrobial Screening (MIC)
Method: as §1, §2, §3

[12] = tested on: S. epidermidis MRO 02002; type: cell-based; conditions: Staphylococcus epidermidis, MRO02002, 35° C., 16-20 hours, read-out: Antimicrobial Screening (MIC)
Method: as §1, §2, §3

[13] = tested on: S. epidermidis MRO 02045; type: cell-based; conditions: Staphylococcus epidermidis, MRO02045, 35° C., 16-20 hours, read-out: Antimicrobial Screening (MIC)
Method: as §1, §2, §3

[14] = tested on: S. epidermidis MRO 02095; type: cell-based; conditions: Staphylococcus epidermidis, MRO02095, 35° C., 16-20 hours, read-out: Antimicrobial Screening (MIC)
Method: as §1, §2, §3

[15] = tested on: S. haemolyticus MRO 02064; type: cell-based; conditions: Staphylococcus haemolyticus, MRO02064, 35° C., 16-20 hours, read-out: Antimicrobial Screening (MIC)
Method: as §1, §2, §3

[16] = tested on: S. saprophyticus MRO 02003; type: cell-based; conditions: Staphylococcus saprophyticus, MRO02003, 35° C., 16-20 hours, read-out: Antimicrobial Screening (MIC)
Method: as §1, §2, §3

[17] = tested on: E. faecalis ATCC 29212; type: cell-based, Enterococcus faecalis; conditions: Enterococcus faecalis, ATCC29212, 35° C., 16-20 hours, read-out: Antimicrobial Screening (MIC)
Method: as §1, §2, §3

[18] = tested on: E. faecalis ATCC 51299; type: cell-based, Enterococcus faecalis; conditions: Enterococcus faecalis, ATCC51299, 35° C., 16-20 hours, read-out: Antimicrobial Screening (MIC)
Method: as §1, §2, §3

[19] = tested on: E. faecalis MRO 04035; type: cell-based, Enterococcus faecalis; conditions: Enterococcus faecalis, MRO04035, 35° C., 16-20 hours, read-out: Antimicrobial Screening (MIC)
Method: as §1, §2, §3

[20] = tested on: E. faecalis MRO 04050; type: cell-based, Enterococcus faecalis; conditions: Enterococcus faecalis, MRO04050, 35° C., 16-20 hours, read-out: Antimicrobial Screening (MIC)
Method: as §1, §2, §3

[21] = tested on: E. faecalis MRO 04205; type: cell-based, Enterococcus faecalis; conditions: Enterococcus faecalis, MRO04205, 35° C., 16-20 hours, read-out: Antimicrobial Screening (MIC)
Method: as §1, §2, §3

[22] = tested on: E. faecium ATCC 700221; type: cell-based, Enterococcus faecium; conditions: Enterococcus faecium, ATCC700221, 35° C., 16-20 hours, read-out: Antimicrobial Screening (MIC)
Method: as §1, §2, §3

[23] = tested on: E. faecium MRO 04037; type: cell-based, Enterococcus faecium; conditions: Enterococcus faecium, MRO04037, 35° C., 16-20 hours, read-out: Antimicrobial Screening (MIC)
Method: as §1, §2, §3

[24] = tested on: E. faecium MRO 04038; type: cell-based, Enterococcus faecium; conditions: Enterococcus faecium, MRO04038, 35° C., 16-20 hours, read-out: Antimicrobial Screening (MIC)
Method: as §1, §2, §3

[25] = tested on: E. faecium MRO 04198; type: cell-based, Enterococcus faecium; conditions: Enterococcus faecium, MRO04198, 35° C., 16-20 hours, read-out: Antimicrobial Screening (MIC)
Method: as §1, §2, §3

[26] = tested on: M. catarrhalis ATCC 43617; type: cell-based, Moraxella catarrhalis; conditions: Moraxella catarrhalis, ATCC43617, 35° C., 16-20 hours, read-out: Antimicrobial Screening (MIC)
Method: as §1, §2, §3

[27] = tested on: M. catarrhalis ATCC 43627; type: cell-based, Moraxella catarrhalis; conditions: Moraxella catarrhalis, ATCC43627, 35° C., 16-20 hours, read-out: Antimicrobial Screening (MIC)
Method: as §1, §2, §3

[28] = tested on: M. catarrhalis ATCC 43628; type: cell-based, Moraxella catarrhalis; conditions: Moraxella catarrhalis, ATCC43628, 35° C., 16-20 hours, read-out: Antimicrobial Screening (MIC)
Method: as §1, §2, §3

Compound `COC(=S)NC[C@H]1CN(c2ccc(N3CCN(C(=O)COCc4ccccc4)CC3)c(F)c2)C(=O)O1` [Example 45, (S)—O-Methyl (3-(4-(4-(2-(benzyloxy)acetyl)piperazin-1-yl)-3-fluorophenyl)-2-oxooxazolidin-5-yl)methylcarbamothioate] has an MIC [1] of 1 µg/mL (≈ 1.94 µM), an MIC [2] of 0.5 µg/mL (≈ 0.968 µM) and an MIC [3] of 1 µg/mL (≈ 1.94 µM). For the same compound, the MIC [4] was 0.5 µg/mL (≈ 0.968 µM), the MIC [5] was 1 µg/mL (≈ 1.94 µM) and the MIC [6] was 1 µg/mL (≈ 1.94 µM). For the same compound, the MIC [7] was 0.5 µg/mL (≈ 0.968 µM), the MIC [8] was 1 µg/mL (≈ 1.94 µM) and the MIC [9] was 0.5 µg/mL (≈ 0.968 µM). The MIC [10] was 1 µg/mL (≈ 1.94 µM), the MIC [11] was 1 µg/mL (≈ 1.94 µM) and the MIC [12] was 1 µg/mL (≈ 1.94 µM). The MIC [13] was 1 µg/mL (≈ 1.94 µM), the MIC [14] was 1 µg/mL (≈ 1.94 µM) and the MIC [15] was 0.5 µg/mL (≈ 0.968 µM). For the same compound, the MIC [16] was 1 µg/mL (≈ 1.94 µM), the MIC [17] was 0.5 µg/mL (≈ 0.968 µM) and the MIC [18] was 0.5 µg/mL (≈ 0.968 µM). For the same compound, the MIC [19] was 0.5 µg/mL (≈ 0.968 µM), the MIC [20] was 0.5 µg/mL (≈ 0.968 µM) and the MIC [21] was 0.5 µg/mL (≈ 0.968 µM). It also gave an MIC [22] of 0.5 µg/mL (≈ 0.968 µM), an MIC [23] of 0.5 µg/mL (≈ 0.968 µM) and an MIC [24] of 0.5 µg/mL (≈ 0.968 µM). The MIC [25] was 0.5 µg/mL (≈ 0.968 µM), the MIC [26] was 0.5 µg/mL (≈ 0.968 µM) and the MIC [27] was 2 µg/mL (≈ 3.87 µM). The MIC [28] was 1 µg/mL (≈ 1.94 µM).

Work on `COC(=S)NC[C@H]1CN(c2ccc(N3CCN(C(=O)C4CC4)CC3)c(F)c2)C(=O)O1` [Example 47, (S)—O-Methyl (3-(4-(4-(cyclopropanecarbonyl)piperazin-1-yl)-3-fluorophenyl)-2-oxooxazolidin-5-yl)methylcarbamothioate] yielded an MIC [1] of 1 µg/mL (≈ 2.29 µM), an MIC [2] of 0.5 µg/mL (≈ 1.15 µM) and an MIC [3] of 1 µg/mL (≈ 2.29 µM). It also gave an MIC [4] of 0.5 µg/mL (≈ 1.15 µM), an MIC [5] of 1 µg/mL (≈ 2.29 µM) and an MIC [6] of 1 µg/mL (≈ 2.29 µM). The MIC [7] was 0.5 µg/mL (≈ 1.15 µM), the MIC [8] was 1 µg/mL (≈ 2.29 µM) and the MIC [9] was 0.5 µg/mL (≈ 1.15 µM). It also gave an MIC [10] of 0.5 µg/mL (≈ 1.15 µM), an MIC [11] of 0.5 µg/mL (≈ 1.15 µM) and an MIC [12] of 1 µg/mL (≈ 2.29 µM). For the same compound, the MIC [13] was 1 µg/mL (≈ 2.29 µM), the MIC [14] was 0.5 µg/mL (≈ 1.15 µM) and the MIC [15] was 0.5 µg/mL (≈ 1.15 µM). It also gave an MIC [16] of 1 µg/mL (≈ 2.29 µM), an MIC [17] of 0.5 µg/mL (≈ 1.15 µM) and an MIC [18] of 0.5 µg/mL (≈ 1.15 µM). It also gave an MIC [19] of 0.5 µg/mL (≈ 1.15 µM), an MIC [20] of 0.5 µg/mL (≈ 1.15 µM) and an MIC [21] of 0.5 µg/mL (≈ 1.15 µM). The MIC [22] was 0.5 µg/mL (≈ 1.15 µM), the MIC [23] was 0.5 µg/mL (≈ 1.15 µM) and the MIC [24] was 0.5 µg/mL (≈ 1.15 µM). The MIC [25] was 0.5 µg/mL (≈ 1.15 µM), the MIC [26] was 1 µg/mL (≈ 2.29 µM) and the MIC [27] was 2 µg/mL (≈ 4.58 µM). For the same compound, the MIC [28] was 2 µg/mL (≈ 4.58 µM).
